Experimental data published in patent US7534444B2, “Molecular mimetics of meningococcal B epitopes which elicit functionally active antibodies” (priority 2001, dated 2009).
Ends that are not written are not given here.

B1: rGNA33: recombinant GNA33 of strain 2996, soluble protein without signal and lipid modification sequences (protein)
chain: MKKYLFRAALCGIAAAILAACQSKSIQTFPQPDTSVINGPDRPVGIPDPAGTTVGGGGAVYTVVPHLSLPHWAAQDFAKSLQSFRLGCANLKNRQGWQDVCAQAFQTPVHSVQAKQFFERYFTPWQVAGNGSLAGTVTGYYEPVLKGDDRRTAQARFPIYGIPDDFISVPLPAGLRSGKALVRIRQTGKNSGTIDNTGGTHTADLSQFPITARTTAIKGRFEGSRFLPYHTRNQINGGALDGKAPILGYAEDPVELFFMHIQGSGRLKTPSGKYIRIGYADKNEHPYVSIGRYMADKGYLKLGQTSMQGIKAYMQQNPQRLAEVLGQNPSYIFFRELTGSSNDGPVGALGTPLMGEYAGAVDRHYITLGAPLFVATAHPVTRKALNRLIMAQDTGSAIKGAVRVDYFWGYGDEAGELAGKQKTTGYVWQLLPNGMKPEYRP

How the values were obtained:
[1] = test system: anti-GNA33 mAb 25; test: Peptide binding assay with cellulose-bound spot-synthesised peptides; set-up: species or system mouse; settings: for Relative Binding (of anti-GNA33 mAb 25): alanine substitution of PorA loop 4 VR type P1.2-2 10-mer; for Dye Units (binding of anti-GNA33 mAb 25): mAb 25 6 μg/ml
Procedure: Peptide spot synthesis was carried out on amino-PEG-cellulose membranes (ABIMED, Langerfeld, Germany) using a model ASP 222 automated spot synthesizer (ABIMED) and diisopropylcarbodiimide (DIC)/N-hydroxybenzotriazole (HOBt) activation (Frank and Overwin, Methods Mol. Biol. (1996) 66:149-169). In situ-prepared 0.2 M HOBt esters of fluorenylmethoxycarbonyl (Fmoc)-amino acid derivatives were used for the coupling reaction. […] After the final cycle, all the peptides were N-terminally acetylated with 2% acetic anhydride. At the end of the synthesis, the side-chain protecting groups were removed using a mixture of trifluoroacetic acid/triisobutylsilane/water/dichloromethane (50/3/2/45).
Cellulose-bound peptides were soaked in ethanol to prevent hydrophobic interactions between the peptides. Non-specific binding was blocked by incubating cellulose sheets overnight at 4° C. with 10 ml of 2% casein in Tris buffered saline (TBS: 50 mM Tris-HCl, 137 mM NaCl, […], pH 7.0), containing 0.05% TWEEN® 20 (T-TBS). The sheets were incubated for 2 hr at 37° C. with the anti-GNA33 mAb 25 (6 μg/ml) or an anti-PorA 1.2 mAb diluted 1:100 in T-TBS blocking buffer. Alkaline phosphatase-conjugated goat anti-mouse IgG (BioRad) was then added at 1:3000 dilution in T-TBS blocking buffer for 1 hr at 37° C. Sheets were washed three times with T-TBS and detection of binding was achieved by incubating the sheets with bromo-4-chloro-3-indolyl-phosphate (BCIP) (Sigma, Steinheim, Germany) and […] in substrate buffer (100 mM Tris, pH 8.9, 100 mM NaCl, 2 mM MgCl2). Quantitative evaluation of the signal was obtained using a Umax Speedy II 2200 optical scanner.

[2] = molecular target: PorA of N. meningitidis strain M3735 (B:NT:P1.5,2) (Neisseria meningitidis serogroup B strain M3735); test: cell-based or functional assay
[3] = molecular target: PorA of N. meningitidis strain M986 (B:2a:P1.5,2) (Neisseria meningitidis serogroup B strain M986); test: cell-based or functional assay
[4] = molecular target: PorA of N. meningitidis strain 2996 (B:2b:P1.5,2) (Neisseria meningitidis serogroup B strain 2996); test: cell-based or functional assay
[5] = molecular target: PorA of N. meningitidis strain M5682 (B:2a:P1.5,2) (Neisseria meningitidis serogroup B strain M5682); test: cell-based or functional assay
[6] = molecular target: PorA of N. meningitidis strain NMB (B:2b:P1.5,2) (Neisseria meningitidis serogroup B strain NMB); test: cell-based or functional assay
[7] = molecular target: PorA of N. meningitidis strain M5954 (C:2a:P1.2) (Neisseria meningitidis serogroup C strain M5954); test: cell-based or functional assay
[8] = molecular target: PorA of N. meningitidis strain M5545 (B:NT:P1.5,2) (Neisseria meningitidis serogroup B strain M5545); test: cell-based or functional assay
[9] = molecular target: PorA of N. meningitidis strain 8047 (B:2b:P1.5,2) (Neisseria meningitidis serogroup B strain 8047); test: cell-based or functional assay
[10] = molecular target: PorA of N. meningitidis strain BZ232 (B:NT:P1.2) (Neisseria meningitidis serogroup B strain BZ232); test: cell-based or functional assay
[11] = test system: encapsulated MenB strain 2996; settings: mice immunized; measured against encapsulated MenB strain 2996; cited from earlier work
[12] = test system: P1.2 epitope of PorA loop 4; test: Immunization of CD1 mice with rGNA33 in Freund's adjuvant; format: in vivo; settings: recombinant protein simply mixed with Freund's adjuvant, without renaturation
Procedure: In order to prepare antisera against GNA33, 20 μg of purified HT-GNA33 or untagged rGNA33 was used to immunize six-week old CD1 female mice (four to ten mice per group). The mice were obtained from Charles River (Italia S.P.A., Calco, Italy, or Hollister, Calif.). The recombinant protein was given i.p, together with complete Freund's adjuvant (CFA) for the first dose and incomplete Freund's adjuvant (IFA) for the second (day 21) and third (day 35) booster doses. Blood samples were taken on days 34 and 49.

[13] = overlapping decapeptides from GNA33
[14] = overlapping decapeptides from loop 4 of PorA P1.2 (strain 2996)

Molecule	Dye Units (binding of anti-GNA33 mAb 25) [1, 13] [Dye Units]	Dye Units (binding of anti-GNA33 mAb 25) [1, 14] [Dye Units]	also measured
PAK FVQ QTP A (PAHFVQQTPA)			Relative Binding (of anti-GNA33 mAb 25) [1]: 2
PAH FVA QTP Q (Ac-PAHFVAQTPQ)			Relative Binding (of anti-GNA33 mAb 25) [1]: 2
VSAQAFQTPV	27		
TPAHFVQQTP		8	
VQQTPQSQPT (Ac-VQQTPQSQPT)		4	
QTPVHSFQAK	19		
meningococcal Por A P1.2-specific subtyping mAb (MN16C13F4, subclass IgG2a) (antibody)			BC50, human complement [2]: < 0.5 µg/mL; BC50, human complement [3]: < 0.5 µg/mL; BC50, human complement [4]: < 0.5 µg/mL; BC50, human complement [5]: < 0.5 µg/mL; BC50, human complement [6]: < 0.5 µg/mL; BC50, human complement [7]: < 0.5 µg/mL; BC50, human complement [8]: < 0.5 µg/mL; BC50, human complement [9]: < 0.5 µg/mL; BC50, human complement [10]: < 0.5 µg/mL
YTPAHFVQQT (Ac-YTPAHFVQQT)		0	
QTPQSQPTLV (Ac-QTPQSQPTLV)		2	
PAH AVQ QTP Q (Ac-PAHAVQQTPQ)			Relative Binding (of anti-GNA33 mAb 25) [1]: 1
QDVSAQAFQT	0		
PAHFVQQTPQ (Ac-PAHFVQQTPQ)		10	
TPQSQPTVP		2	
AFQTPVHSFQ	24		
FQTPVHSFQA	22		
SAQAFQTPVH	29		

Molecule	Dye Units (binding of anti-GNA33 mAb 25) [1, 13] [Dye Units]	Dye Units (binding of anti-GNA33 mAb 25) [1, 14] [Dye Units]	also measured
PAH FVQ QAP Q (Ac-PAHFVQQAPQ)			Relative Binding (of anti-GNA33 mAb 25) [1]: 0
FVQQTPQSQP (Ac-FVQQTPQSQP)		9	
PAH FAQ QTP Q (Ac-PAHFAQQTPQ)			Relative Binding (of anti-GNA33 mAb 25) [1]: 4
PAH FVQ QTA Q (Ac-PAHFVQQTAQ)			Relative Binding (of anti-GNA33 mAb 25) [1]: 0
QQTPQSQPTL (Ac-QQTPQSQPTL)		0	
AHFVQQTPQS (Ac-AHFVQQTPQS)		14	
PAA FVQ QTP Q (Ac-PAAFVQQTPQ)			Relative Binding (of anti-GNA33 mAb 25) [1]: 8
AQAFQTPVHS	30		
DVSAQAFQTP	23		
PAH FVQ ATP Q (Ac-PAHFVQATPQ)			Relative Binding (of anti-GNA33 mAb 25) [1]: 0
TPVHSFQAKQ	2		
PGH FVQ QTP Q (Ac-PGHFVQQTPQ)			Relative Binding (of anti-GNA33 mAb 25) [1]: 8
HFVQQTPQSQ (Ac-HFVQQTPQSQ)		15	
QAFQTPVHSF	30		
B1			serum bactericidal antibody titers [11]: high; antibody elicited by immunization [12]: elicited bactericidal antibody
